According to patent US20220402925A1, “COMPOUNDS AND METHODS FOR THE TREATMENT OF CYSTIC FIBROSIS” (Flatley Discovery Lab, LLC, priority 2019, published 2022):

Columns and labels:
[1] = molecular target: T1, F508del CFTR (Homo sapiens, UniProt P13569, DEL508-508); test: Equivalent current assay in primary CF airway epithelial cells (Corrector Activity, NAUC normalized to 3 μM VX809); format: cell-based; conditions: NAUC as % of positive control (VX-809)
T1 construct: Primary CF airway epithelial cells were obtained from the UNC Cystic Fibrosis Tissue Procurement and Cell Culture Core; host or cells: primary CF airway epithelial cells
Outline: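 Differentiated primary CF airway cells treated basolaterally 24 h at 37° C with compound (0.1% DMSO). Equivalent current recorded after 5 μM benzamil, stimulation with 10 μM forskolin plus 1 μM VX-770 or 3 μM FDL176, and block by 20 μM CFTR-172; vehicle-subtracted AUC normalized to 3 μM VX809; EC50 from sigmoid fit, Hill slope 1.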

[2] = molecular target: T1, F508del CFTR; test: CoPo (corrector plus potentiator) equivalent current assay in primary CF airway epithelial cells, test compound added back as potentiator, no VX-770; format: cell-based; design: key: +++: NAUC>70% of positive control; ++: NAUC 70-40% of positive control; +: NAUC<40% of positive control; O: no positive response; conditions: CoPo as % of positive control (VX-809 + acute VX-770)
Procedure: It was noticed that many of the test compounds had potentiator activity in addition to corrector activity. These compounds have been denoted as CoPos by FDL and others. To measure both the corrector and potentiator activity of a compound the following changes were made to the test conditions. Cells were treated as usual with the test compounds for at least 24 hours before the experiment. 30 minutes prior to the experiment the test compound is added back to the testing solution to act as a potentiator and no VX-770 (the standard CFTR potentiator) was used with the test compound. The negative control was no longer just DMSO (no corrector) but changed to VX-809 (the standard corrector) plus VX-770 treatment for at least 24 hours. 30 minutes prior to the experiment both VX-809 and VX-770 were added back to the testing solution. This treatment led to a smaller response than the positive control of correcting F508del CFTR with VX-809 alone for at least 24 hours and adding VX-770 acutely with the forskolin addition (just as in the corrector assay).
A CoPo reading of zero means that the test compound has the same forskolin stimulated response as VX-809+VX-770 treatment for 24 hours. A CoPo reading of 1.0 means the test compound has the same forskolin response as cell treated with VX-809 and stimulated with forskolin+VX-770. CoPo activity “+++” refers to an observed CoPo>70% of positive control; CoPo activity “++” refers to an observed CoPo 70-40% of positive control; CoPo activity “+” refers to an observed CoPo<40% of positive control and “O” refers to no positive response.

T1 sequence (P13569 with tags, fused parts or gaps DEL508-508): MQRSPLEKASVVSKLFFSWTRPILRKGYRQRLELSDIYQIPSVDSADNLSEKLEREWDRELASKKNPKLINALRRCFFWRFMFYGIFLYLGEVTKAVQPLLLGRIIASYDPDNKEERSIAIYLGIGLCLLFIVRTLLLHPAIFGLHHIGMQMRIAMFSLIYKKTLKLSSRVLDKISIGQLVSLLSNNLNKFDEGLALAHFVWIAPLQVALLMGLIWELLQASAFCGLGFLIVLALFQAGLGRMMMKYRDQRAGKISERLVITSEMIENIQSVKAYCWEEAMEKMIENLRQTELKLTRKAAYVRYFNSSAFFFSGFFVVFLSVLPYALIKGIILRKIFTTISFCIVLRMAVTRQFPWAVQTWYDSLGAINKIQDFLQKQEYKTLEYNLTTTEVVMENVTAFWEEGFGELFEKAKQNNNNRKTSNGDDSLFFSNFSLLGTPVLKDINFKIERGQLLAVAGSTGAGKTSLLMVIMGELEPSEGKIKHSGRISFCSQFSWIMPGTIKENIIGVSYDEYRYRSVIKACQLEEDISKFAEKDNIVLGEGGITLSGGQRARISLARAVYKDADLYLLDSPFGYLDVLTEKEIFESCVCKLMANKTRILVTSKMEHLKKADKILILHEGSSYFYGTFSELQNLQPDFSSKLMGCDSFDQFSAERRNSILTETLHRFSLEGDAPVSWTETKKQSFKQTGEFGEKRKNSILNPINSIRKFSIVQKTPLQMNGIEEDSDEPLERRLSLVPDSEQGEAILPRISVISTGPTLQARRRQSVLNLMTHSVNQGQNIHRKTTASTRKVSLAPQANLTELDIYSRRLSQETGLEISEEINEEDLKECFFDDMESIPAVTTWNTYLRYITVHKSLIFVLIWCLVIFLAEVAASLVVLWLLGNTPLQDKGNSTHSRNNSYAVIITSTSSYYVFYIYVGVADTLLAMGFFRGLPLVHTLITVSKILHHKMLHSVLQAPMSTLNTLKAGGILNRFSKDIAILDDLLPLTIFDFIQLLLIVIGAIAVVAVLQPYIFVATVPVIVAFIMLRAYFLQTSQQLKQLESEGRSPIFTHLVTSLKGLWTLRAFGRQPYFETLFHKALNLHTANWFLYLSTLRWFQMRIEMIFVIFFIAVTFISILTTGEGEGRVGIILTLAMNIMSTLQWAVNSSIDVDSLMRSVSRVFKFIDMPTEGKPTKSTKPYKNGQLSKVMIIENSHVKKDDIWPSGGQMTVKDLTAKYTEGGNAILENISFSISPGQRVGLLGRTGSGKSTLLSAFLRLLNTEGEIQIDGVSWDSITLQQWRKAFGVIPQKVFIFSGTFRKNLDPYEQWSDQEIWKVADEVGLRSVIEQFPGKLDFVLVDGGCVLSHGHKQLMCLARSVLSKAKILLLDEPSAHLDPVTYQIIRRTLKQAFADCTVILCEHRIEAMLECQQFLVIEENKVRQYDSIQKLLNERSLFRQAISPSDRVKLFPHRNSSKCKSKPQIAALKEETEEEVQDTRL

CN(C(=O)Cn1nc(-c2cccc(F)c2)c2occc2c1=O)c1ccc2c(c1)OC(F)(F)O2 [Example 8]
Corr Activity (NAUC) [1]: +++ (NAUC>70% of positive control)
CoPo Activity [2]: ++ (CoPo 70-40% of positive control)

CN(C(=O)Cn1nc(-c2cccc(Cl)c2)c2occc2c1=O)c1ccc2c(c1)OC(F)(F)O2 [Example 9]
Corr Activity (NAUC) [1]: +++ (NAUC>70% of positive control)
CoPo Activity [2]: +++ (CoPo>70% of positive control)

CCN(C(=O)Cn1nc(-c2cccc(C#N)c2)c2occc2c1=O)c1ccc2c(c1)OC(F)(F)O2 [Example 10]
Corr Activity (NAUC) [1]: +++ (NAUC>70% of positive control)
CoPo Activity [2]: +++ (CoPo>70% of positive control)

CN(C(=O)Cn1nc(-c2cccc(C#N)c2)c2occc2c1=O)c1ccc2c(c1)OC(F)(F)O2 [Example 11]
Corr Activity (NAUC) [1]: +++ (NAUC>70% of positive control)
CoPo Activity [2]: +++ (CoPo>70% of positive control)

CCN(C(=O)Cn1nc(-c2cccc(C#N)c2)c2occc2c1=O)c1ccc2c(c1)CCC2 [Example 12]
Corr Activity (NAUC) [1]: +++ (NAUC>70% of positive control)
CoPo Activity [2]: +++ (CoPo>70% of positive control)

CN(C(=O)Cn1nc(-c2cccc(F)c2)c2nc[nH]c2c1=O)c1ccc2c(c1)OC(F)(F)O2 [Example 21]
Corr Activity (NAUC) [1]: + (NAUC<40% of positive control)
CoPo Activity [2]: O

CN(C(=O)Cn1nc(-c2cccc(Cl)c2)c2[nH]cnc2c1=O)c1ccc2c(c1)OC(F)(F)O2 [Example 22]
Corr Activity (NAUC) [1]: ++ (NAUC 70-40% of positive control)
CoPo Activity [2]: O

CN(C(=O)Cn1nc(-c2cccc(C#N)c2)c2[nH]cnc2c1=O)c1ccc2c(c1)OC(F)(F)O2 [Example 23]
Corr Activity (NAUC) [1]: + (NAUC<40% of positive control)
CoPo Activity [2]: + (CoPo<40% of positive control)

CCN(C(=O)Cn1nc(-c2cccc(C#N)c2)c2[nH]cnc2c1=O)c1ccc2c(c1)OC(F)(F)O2 [Example 24]
Corr Activity (NAUC) [1]: +++ (NAUC>70% of positive control)
CoPo Activity [2]: +++ (CoPo>70% of positive control)

CCN(C(=O)Cn1nc(-c2cccc(F)c2)c2[nH]cnc2c1=O)c1ccc2c(c1)OC(F)(F)O2 [Example 25]
Corr Activity (NAUC) [1]: +++ (NAUC>70% of positive control)
CoPo Activity [2]: + (CoPo<40% of positive control)

CN(C(=O)Cn1nc(-c2cccc(F)c2)c2c(c1=O)CCO2)c1ccc2c(c1)OC(F)(F)O2 [Example 160]
Corr Activity (NAUC) [1]: ++ (NAUC 70-40% of positive control)
CoPo Activity [2]: + (CoPo<40% of positive control)

CCN(C(=O)Cn1nc(-c2cccc(F)c2)c2c(c1=O)CCO2)c1ccc2c(c1)OC(F)(F)O2 [Example 161]
Corr Activity (NAUC) [1]: +++ (NAUC>70% of positive control)
CoPo Activity [2]: ++ (CoPo 70-40% of positive control)

N#Cc1cc(-c2nn(CC(=O)N(c3ccc4c(c3)OC(F)(F)O4)C3CC3)c(=O)c3nc[nH]c23)ccc1N1CCCCC1 [Example 491]
Corr Activity (NAUC) [1]: ++ (NAUC 70-40% of positive control)

CCN(C(=O)Cn1nc(-c2cccc(C#N)c2)c2[nH]ncc2c1=O)c1ccc2c(c1)OC(F)(F)O2 [Example 492, 2-(7-(3-cyanophenyl)-4-oxo-1,4-dihydro-5H-pyrazolo[3,4-d]pyridazin-5-yl)-N-(2,2-difluorobenzo[d][1,3]dioxol-5-yl)-N-ethylacetamide]
Corr Activity (NAUC) [1]: ++ (NAUC 70-40% of positive control)

CCN(C(=O)Cn1nc(-c2cccc(C#N)c2)c2cn[nH]c2c1=O)c1ccc2c(c1)OC(F)(F)O2 [Example 493, 2-(4-(3-cyanophenyl)-7-oxo-1,7-dihydro-6H-pyrazolo[3,4-d]pyridazin-6-yl)-N-(2,2-difluorobenzo[d][1,3]dioxol-5-yl)-N-ethylacetamide]
Corr Activity (NAUC) [1]: ++ (NAUC 70-40% of positive control)

CN(C(=O)Cn1nc(-c2cccc(C#N)c2)c2cn[nH]c2c1=O)c1ccc2c(c1)OC(F)(F)O2 [Example 494]
Corr Activity (NAUC) [1]: ++ (NAUC 70-40% of positive control)

CCN(C(=O)Cn1nc(-c2cccc(F)c2)c2cn[nH]c2c1=O)c1ccc2c(c1)OC(F)(F)O2 [Example 495]
Corr Activity (NAUC) [1]: ++ (NAUC 70-40% of positive control)

CCN(C(=O)Cn1nc(-c2cccc(Cl)c2)c2cn[nH]c2c1=O)c1ccc2c(c1)OC(F)(F)O2 [Example 496]
Corr Activity (NAUC) [1]: ++ (NAUC 70-40% of positive control)

CN(C(=O)Cn1nc(-c2cccc(F)c2)c2cn[nH]c2c1=O)c1ccc2c(c1)OC(F)(F)O2 [Example 497]
Corr Activity (NAUC) [1]: + (NAUC<40% of positive control)

CN(C(=O)Cn1nc(-c2cccc(Cl)c2)c2cn[nH]c2c1=O)c1ccc2c(c1)OC(F)(F)O2 [Example 498]
Corr Activity (NAUC) [1]: + (NAUC<40% of positive control)

CCN(C(=O)Cn1nc(-c2cccc(F)c2)c2[nH]ncc2c1=O)c1ccc2c(c1)OC(F)(F)O2 [Example 499]
Corr Activity (NAUC) [1]: + (NAUC<40% of positive control)

CCN(C(=O)Cn1nc(-c2cccc(Cl)c2)c2[nH]ncc2c1=O)c1ccc2c(c1)OC(F)(F)O2 [Example 500]
Corr Activity (NAUC) [1]: ++ (NAUC 70-40% of positive control)

CCN(C(=O)Cn1nc(-c2cccc(F)c2)c2[nH]ccc2c1=O)c1ccc2c(c1)OC(F)(F)O2 [Example 501, N-(2,2-difluorobenzo[d][1,3]dioxol-5-yl)-N-ethyl-2-(7-(3-fluorophenyl)-4-oxo-1,4-dihydro-5H-pyrrolo[2,3-d]pyridazin-5-yl)acetamide]
Corr Activity (NAUC) [1]: +++ (NAUC>70% of positive control)

CCN(C(=O)Cn1nc(-c2cccc(Cl)c2)c2[nH]ccc2c1=O)c1ccc2c(c1)OC(F)(F)O2 [Example 502]
Corr Activity (NAUC) [1]: +++ (NAUC>70% of positive control)

CCN(C(=O)Cn1nc(-c2cccc(C#N)c2)c2[nH]ccc2c1=O)c1ccc2c(c1)OC(F)(F)O2 [Example 503]
Corr Activity (NAUC) [1]: +++ (NAUC>70% of positive control)
